Measured values taken from patent publication US20230017532A1 (Hoffmann-La Roche Inc., priority 2018, published 2023).
Counter-ions that a name gives are not always drawn.

tested on: Acinetobacter baumannii ATCC17978; test: Antimicrobial susceptibility testing: 90% growth inhibitory concentration (IC90) determination, Iso-Sensitest broth, OD 600 nm; assay type: cell-based; details: 90% growth inhibitory concentration, Acinetobacter baumannii ATCC17978, Iso-Sensitest broth, OD 600 nm over 16 h; read-out: ATCC 17978 IC90
Experimental: Antimicrobial Susceptibility Testing:
90% Growth Inhibitory Concentration (IC90) Determination
The in vitro antimicrobial activity of the compounds was determined according to the following procedure:
The assay used a 10-points Iso-Sensitest broth medium to measure quantitatively the in vitro activity of the compounds against Acinetobacter baumannii ATCC17978 and Acinetobacter baumannii ATCC17961.
Stock compounds in DMSO were serially twofold diluted (e.g. range from 50 to 0.097 μM final concentration) in 384 wells microtiter plates and inoculated with 49 μl the bacterial suspension in Iso-Sensitest medium to have a final cell concentration of ˜5×10^(5) CFU/ml in a final volume/well of 50 ul/well. Microtiter plates were incubated at 35±2° C.
Bacterial cell growth was determined with the measurement of optical density at λ=600 nm each 20 minutes over a time course of 16 h. Growth inhibition was calculated during the logarithmic growth of the bacterial cells with determination of the concentration inhibiting 50% (IC50) and 90% (IC90) of the growth.
Table 1 provides the 90% growth inhibitory concentrations (IC90) in micromoles per liter of the compounds of present invention obtained against the strain Acinetobacter baumannii ATCC17978 and Acinetobacter baumannii ATCC17961.

IC90 [nM]	SMILES
64	CCc1cc(Nc2nccn3c(-c4ccc(OCC#N)c(F)c4F)cnc23)ccc1C(=O)NCCOCCN [Example 20, N-[2-(2-aminoethoxy)ethyl]-4-[[3-[4-(cyanomethoxy)-2,3-difluoro-phenyl]imidazo[1,2-a]pyrazin-8-yl]amino]-2-ethyl-benzamide;2,2,2-trifluoroacetic acid]

same assay, conditions: Acinetobacter baumannii, ATCC17978, 16 h, 90% growth inhibitory concentration, Acinetobacter baumannii ATCC17978, Iso-Sensitest broth, OD 600 nm over 16 h; read-out: ATCC 17978 IC90

IC90 [nM]	SMILES
120	COc1ccc(-c2cnc3c(Nc4ccc(C(=O)NCCOCCN5CCNCC5)c(Cl)c4)nccn23)c(F)c1F [Example 1, 2-chloro-4-[[3-(2,3-difluoro-4-methoxyphenyl)imidazo[1,2-a]pyrazin-8-yl]amino]-N-[2-(2-piperazin-1-ylethoxy)ethyl]benzamide;2,2,2-trifluoroacetic acid]
120	COc1ccc(-c2cnc3c(Nc4ccc(C(=O)NCCOCCN(C)C)c(Cl)c4)nccn23)c(F)c1F [Example 2, 2-chloro-4-[[3-(2,3-difluoro-4-methoxy-phenyl)imidazo[1,2-a]pyrazin-8-yl]amino]-N-[2-[2-(dimethylamino)ethoxy]ethyl]benzamide;2,2,2-trifluoroacetic acid]
380	COc1ccc(-c2cnc3c(Nc4ccc(C(=O)NCCOCCN5CCNC(=O)C5)c(C)c4)nccn23)c(F)c1F [Example 3, 4-[[3-(2,3-difluoro-4-methoxy-phenyl)imidazo[1,2-a]pyrazin-8-yl]amino]-2-methyl-N-[2-[2-(3-oxopiperazin-1-yl)ethoxy]ethyl]benzamide;2,2,2-trifluoroacetic acid]
120	COc1ccc(-c2cnc3c(Nc4ccc(C(=O)NCCOCCN)c(Cl)c4)nccn23)cc1 [Example 6, N-(2-(2-aminoethoxy)ethyl)-2-chloro-4-((3-(4-methoxyphenyl)imidazo[1,2-a]pyrazin-8-yl)amino)benzamide hydrochloride]
1900	COc1ccc(-c2cnc3c(Nc4ccc(C(=O)NCCNCCO)c(C)c4)nccn23)cc1 [Example 7, N-(2-((2-hydroxyethyl)amino)ethyl)-4-((3-(4-methoxyphenyl)imidazo[1,2-a]pyrazin-8-yl)amino)-2-methylbenzamide]
630	COc1ccc(-c2cnc3c(Nc4ccc(C(=O)NCCOCCCl)c(C)c4)nccn23)cc1 [Example 8, N-(2-(2-chloroethoxy)ethyl)-4-((3-(4-methoxyphenyl)imidazo[1,2-a]pyrazin-8-yl)amino)-2-methylbenzamide]
160	CCc1cc(Nc2nccn3c(-c4ccc(Cl)c(F)c4F)cnc23)ccc1C(=O)NCCOCCN [Example 9, N-(2-(2-aminoethoxy)ethyl)-4-((3-(4-chloro-2,3-difluorophenyl)imidazo[1,2-a]pyrazin-8-yl)amino)-2-ethylbenzamide hydrochloride]
170	Cc1cc(Nc2nccn3c(-c4ccc(OC(F)F)cc4)cnc23)ccc1C(=O)NCCOCC(N)=O [Example 10, N-(2-(2-amino-2-oxoethoxy)ethyl)-4-((3-(4-(difluoromethoxy)phenyl)imidazo[1,2-a]pyrazin-8-yl)amino)-2-methylbenzamide]
160	CNC(=O)COCCNC(=O)c1ccc(Nc2nccn3c(-c4ccc(OC(F)F)cc4)cnc23)cc1C [Example 11, 4-((3-(4-(difluoromethoxy)phenyl)imidazo[1,2-a]pyrazin-8-yl)amino)-2-methyl-N-(2-(2-(methylamino)-2-oxoethoxy)ethyl)benzamide]
750	Cc1cc(Nc2nccn3c(-c4ccc(OC(F)F)cc4)cnc23)ccc1C(=O)NCCOCCN1C(=O)COC1=O [Example 12, 4-((3-(4-(difluoromethoxy)phenyl)imidazo[1,2-a]pyrazin-8-yl)amino)-N-(2-(2-(2,4-dioxooxazolidin-3-yl)ethoxy)ethyl)-2-methylbenzamide]
4200	CNCCNC(=O)c1ccc(Nc2nccn3c(-c4ccc(OC)c(Cl)c4)cnc23)cc1 [Example 13, 4-[[3-(3-chloro-4-methoxyphenyl)imidazo[1,2-a]pyrazin-8-yl]amino]-N-[2-(methylamino)ethyl]benzamide;hydrochloride]
240	COc1ccc(-c2cnc3c(Nc4ccc(C(=O)NCCOCCN)c(C)c4)nccn23)cc1 [Example 14, N-(2-(2-aminoethoxy)ethyl)-4-((3-(4-methoxyphenyl)imidazo[1,2-a]pyrazin-8-yl)amino)-2-methylbenzamide hydrochloride]
3800	COc1ccc(-c2cnc3c(Nc4ccc(C(=O)NCCOCCN)cc4)nccn23)cc1 [Example 15, N-(2-(2-aminoethoxy)ethyl)-4-((3-(4-methoxyphenyl)imidazo[1,2-a]pyrazin-8-yl)amino)benzamide hydrochloride]
570	Cc1cc(Nc2nccn3c(-c4ccc(OC(F)F)cc4)cnc23)ccc1C(=O)NCCOCCOCCN [Example 16, N-(2-(2-(2-aminoethoxy)ethoxy)ethyl)-4-((3-(4-(difluoromethoxy)phenyl)imidazo[1,2-a]pyrazin-8-yl)amino)-2-methylbenzamide]
1100	Cc1cc(Nc2nccn3c(-c4ccc(OC(F)F)cc4)cnc23)ccc1C(=O)NCCOCCOCCOCCN [Example 17, N-(2-(2-(2-(2-aminoethoxy)ethoxy)ethoxy)ethyl)-4-((3-(4-(difluoromethoxy)phenyl)imidazo[1,2-a]pyrazin-8-yl)amino)-2-methylbenzamide]
57	COc1ccc(-c2cnc3c(Nc4ccc(C(=O)NCCOCCN)c(Cl)c4)nccn23)c(F)c1F [Example 18, N-(2-(2-aminoethoxy)ethyl)-2-chloro-4-((3-(2,3-difluoro-4-methoxyphenyl)imidazo[1,2-a]pyrazin-8-yl)amino)benzamide]
83	N#CCOc1ccc(-c2cnc3c(Nc4ccc(C(=O)NCCOCCn5ccnc5)c(Cl)c4)nccn23)c(F)c1F [Example 19, N-(2-(2-(1H-imidazol-1-yl)ethoxy)ethyl)-2-chloro-4-((3-(4-(cyanomethoxy)-2,3-difluorophenyl)imidazo[1,2-a]pyrazin-8-yl)amino)benzamide]
160	CCc1cc(Nc2nccn3c(-c4ccc(OCC#N)c(F)c4F)cnc23)ccc1C(=O)NCCOCCN(C)C [Example 21, 4-[[3-[4-(cyanomethoxy)-2,3-difluoro-phenyl]imidazo[1,2-a]pyrazin-8-yl]amino]-N-[2-[2-(dimethylamino)ethoxy]ethyl]-2-ethyl-benzamide]
67	CCc1cc(Nc2nccn3c(-c4ccc(OCC#N)c(F)c4Cl)cnc23)ccc1C(=O)NCCOCCN(C)C [Example 22, 4-[[3-[2-chloro-4-(cyanomethoxy)-3-fluoro-phenyl]imidazo[1,2-a]pyrazin-8-yl]amino]-N-[2-[2-(dimethylamino)ethoxy]ethyl]-2-ethyl-benzamide]
200	COc1ccc(-c2cnc3c(Nc4ccc(C(=O)NCCN(C)CCN)c(C)c4)nccn23)cc1F [Example 23, N-(2-((2-aminoethyl)(methyl)amino)ethyl)-4-((3-(3-fluoro-4-methoxyphenyl)imidazo[1,2-a]pyrazin-8-yl)amino)-2-methylbenzamide]
150	COc1ccc(-c2cnc3c(Nc4ccc(C(=O)NCCSCCN)c(C)c4)nccn23)cc1F [Example 25, N-(2-((2-aminoethyl)thio)ethyl)-4-((3-(3-fluoro-4-methoxyphenyl)imidazo[1,2-a]pyrazin-8-yl)amino)-2-methylbenzamide]
560	CCN(C(=O)NCCCN(C)C)C(=O)c1ccc(Nc2nccn3c(-c4ccc(OCC#N)c(F)c4F)cnc23)cc1Cl [Example 27, 2-chloro-4-[[3-[4-(cyanomethoxy)-2,3-difluoro-phenyl]imidazo[1,2-a]pyrazin-8-yl]amino]-N-[3-(dimethylamino)propylcarbamoyl]-N-ethyl-benzamide]
120	C#CCOc1ccc(-c2cnc3c(Nc4ccc(C(=O)NCCOCCN)c(C)c4)nccn23)cc1 [Example 28, N-[2-(2-Aminoethoxy)ethyl]-2-methyl-4-[[3-(4-prop-2-ynoxyphenyl)imidazo[1,2-a]pyrazin-8-yl]amino]benzamide; formic acid]
120	Cc1cc(Nc2nccn3c(-c4ccc(OCC#CCO)cc4)cnc23)ccc1C(=O)NCCOCCN [Example 29, N-[2-(2-aminoethoxy)ethyl]-4-[[3-[4-(4-hydroxybut-2-ynoxy)phenyl]imidazo[1,2-a]pyrazin-8-yl]amino]-2-methyl-benzamide formate]

same assay, conditions: Acinetobacter baumannii, ATCC17978, 16 h, read-out: ATCC 17978 IC90

SMILES	IC90 [nM]
COc1ccc(-c2cnc3c(Nc4ccc(C(=O)NCCOCCN)c(Cl)c4)nccn23)cc1F [Example 4, N-(2-(2-aminoethoxy)ethyl)-2-chloro-4-((3-(3-fluoro-4-methoxyphenyl)imidazo[1,2-a]pyrazin-8-yl)amino)benzamide hydrochloride]	98
COc1ccc(-c2cnc3c(Nc4ccc(C(=O)NCCOCCN)c(C)c4)nccn23)c(F)c1F [Example 5, N-(2-(2-aminoethoxy)ethyl)-4-((3-(2,3-difluoro-4-methoxyphenyl)imidazo[1,2-a]pyrazin-8-yl)amino)-2-methylbenzamide hydrochloride]	65
COc1ccc(-c2cnc3c(Nc4ccc(C(=O)N(C)CCOCCN)c(C)c4)nccn23)cc1 [Example 24, N-(2-(2-aminoethoxy)ethyl)-4-((3-(4-methoxyphenyl)imidazo[1,2-a]pyrazin-8-yl)amino)-N,2-dimethylbenzamide hydrochloride]	430
